The subject of one data set is DENV-2-eGFP. Description: microbe, parasite or virus in culture. It is filed as cell-based, dengue virus. As to the method: (§1) Approximately 50% of confluent cells seeded in 96-well plates were infected with viruses in the presence of drugs or DMSO as a solvent control. At 24 h post-infection (hpi), cells were fixed with 4% paraformaldehyde at room temperature (RT) for 20 min, permeated with a 0.5% Triton X-100 buffer for 2 min, and blocked with 3% BSA for 30 min. Nuclei were stained with DAPI (Sigma) at RT for 20 min. Viral NS3 was stained with a mouse anti-NS3 monoclonal antibody (mAb)[47] followed by staining with an Alexa Fluor 488-conjugated goat anti-mouse IgG antibody (ThermoFisher) at RT for 1 h. Nine images from different fields per well were acquired and analyzed using an ImageXpress Micro XLS Widefield High-Content Analysis System (Molecular Devices, Sunnyvale, USA). To quantify viral infection, the fluorescence intensities of viral NS3 or eGFP from the reporter virus were measured using MetaXpress® (Molecular Devices, Sunnyvale, USA) and were calculated with a mock control (infection as 0%) and a DMSO solvent control (infection as 100%).

Data set [1] relates to DENV-2. In words: Viral translation assay (NS3 western blot). The conditions noted are these: 1 µM added at 1 hpi, A549 cells, DENV-2 MOI 20. Type of data set: cell-based, dengue virus. As to the method: A549 cells absorbed with DENV-2 (MOI 20) at 4 °C for 1 h were washed to remove unbound viruses. After incubating at 37 °C for 1 h to allow viral entry, cells were treated with P12-23 (1 µM), P12-34 (1 µM) or 2′-c-methyladenosine (20 µM). Cells were harvested at 2, 3, 4, and 6 hpi for western blot analysis as previously described[46] with an anti-NS3 mAb[47] and an anti-actin mAb (NB600-501; Novus Biologicals, Littleton, CO, USA). Protein expression levels were quantified using ImageJ.
Background: In western blotting, separated proteins are transferred to a membrane and probed.

Another data set relates to ZIKV. Description: High-content image analysis of ZIKV infection (NS3) in A549 cells. Type of data set: cell-based, Zika virus. The method, then: as §1
For data set [2], the system named is interferon (IFN)-stimulated response element (ISRE) reporter. Description: ISRE reporter assay and IFN-stimulated gene expression in HEK 293T cells. Type of data set: cell-based, human. The conditions noted are these: 1 µM, 24 h. As to the method: Short synthetic 5′-triphosphate RNA molecules (ssRNA) was synthesized with use of the RiboMAX™ Large Scale RNA Production Kit (P1280, Promega) from control DNA template in the kit, then extracted with the RNeasy® Mini Kit (QIAGEN). About 80% confluent HEK 293T cells in 48 well-plate were co-transfected with pISRE-Luc (Stratagene, Ref 219089) (10 ng/well) and pRL-TK Renilla reporter plasmids (E2241, Promega) (2 ng/well), and increasing doses of ssRNA, then treated with DMSO, 1 μM brequinar, or 1 μM P12-34 for 24h. The luciferase activities were analyzed by using the Dual-Luciferase® Reporter Assay Kit (Promega) and SpectraMax L Microplate Reader (Molecular devices, San Jose, CA, USA). ISRE-Luciferase activity was firstly normalized with Renilla-luciferase activity, then normalized with DMSO control without ssRNA.
Supplementary figure 5. P12-34 amplifies innate immune response. (a) HEK 293T cells were co-transfected with pISRE-luc and pRL-TK Renilla reporter plasmids, and short synthetic 5′-triphosphate RNA molecules (ssRNA), then treated with DMSO, brequinar (1 μM), or P12-34 (1 μM) for 24 h. ISRE-Luciferase activity was normalized with Renilla-luciferase activity in each sample, and then the relative ISRE-Luc level was determined with the DMSO control without ssRNA. Representative data from repeated experiments are shown as mean and SD (n =3). […]
For orientation: A reporter such as luciferase makes a cellular process visible.

The subject of the next data set is JEV-eGFP. Description: microbe, parasite or virus in culture. It is filed as cell-based, Japanese encephalitis virus. As to the method:
as §1

In data set [3] the test system is DENV-2. In words: Viral binding assay. Type of data set: cell-based, dengue virus. The conditions noted are these: 1 µM, A549 cells, DENV-2 MOI 5, 4 °C 1 h. As to the method: A549 cells and DENV-2 separately pretreated with P12-23 (1 µM), P12-34 (1 µM) or heparin (100 unit/ml) at 37 ℃ for 1 h were mixed to allow for viral adsorption at a multiplicity of infection (MOI) of 5 at 4 °C for 1 h. After washing off unbound viruses, RNA was extracted using an RNeasy® Mini Kit (QIAGEN, Hilden, Germany), and viral titers were quantified by real-time RT-PCR as previously described[48] using DENV-2 primers (5′-[…]-3′ and 5′-[…]-3′) and β-actin primers (5′-[…]-3′ and 5′-[…]-3′). After the RNA was normalized to the internal control in each sample, the relative level of viral RNA was determined using the DMSO solvent control.

For another data set, the system named is DENV-4. Description: High-content image analysis of DENV-4 infection (NS3) in A549 cells. Type of data set: cell-based, dengue virus. As to the method: as §1
For data set [4], the system named is DENV-2. Description: Viral entry assay. The conditions noted are these: 1 µM, A549 cells, DENV-2 MOI 5. Type of data set: cell-based, dengue virus. As to the method:
A549 cells pretreated with P12-23 (1 µM), P12-34 (1 µM) or Pitstop®2 (5 µM) at 37 ℃ for 1 h were absorbed with DENV-2 (MOI 5) at 4 °C for 1 h. After removing the unbound viruses, cells were shifted to 37 ℃ for 30 min for viral entry. The cell surface-associated viruses were then removed by treatment with trypsin-EDTA (ThermoFisher) at 37 °C for 10 min. Viral entry indicated by E protein positivity was determined using a BD FACSCalibur Flow Cytometer (BD) after immunofluorescent staining with an anti-E mAb[47].

Data set [5] relates to DENV-2. Description: High-content image analysis of DENV-2 infection (NS3) in A549 cells. It is filed as cell-based, dengue virus. The method, then:
as §1

The mark [6] stands for this setting: Dengue virus, DENV2, A549, 24 h.
The mark [7] stands for this setting: P12-34 1 µM, uridine 50 µg/ml, A549 cells.

“And” between values parts separate entries of the source, which are not always exact repeats. Equal values may be shown once.

A word on the IC50: it is the concentration that inhibits the measured activity by half. A low value points to higher potency. For the compound `N[C@@H](Cc1ccccc1)C(=O)Nc1ccc(-n2cc(C(F)(F)F)cc2-c2ccc3c(ccc4ccccc43)c2)cc1` [P12-34], the “SI (CC50/IC50)” value is 388 and 387.9 ± 14.7 with DENV-2-eGFP (DENV-2-eGFP, A549 cells); 171.4 ± 16.1 in the data set on ZIKV (ZIKV, A549 cells); 360.3 ± 3.1 with JEV-eGFP (JEV-eGFP, A549 cells); 317.8 ± 24.9 in the data set with DENV-4 (DENV-4, A549 cells); 326.5 ± 26.4 in the data set on DENV-2 [5] (DENV-2, A549 cells). Besides, the IC50 in the data set on DENV-2-eGFP (setting [6]) is 52.1 ± 2 nM; in the data set with ZIKV (Zika virus, ZIKV, MOI 0.5, A549 cells, 24 h) it was 119 ± 11.7 nM; in the data set on JEV-eGFP (Japanese encephalitis virus, A549, 24 h), 56.1 ± 0.5 nM; with DENV-4 (Dengue virus, DENV4, A549, 24 h), 63.9 ± 5.1 nM; in the data set with DENV-2 [5] (setting [6]), 62.2 ± 4.9 nM. The “suppressive effect on DENV replication with added Oro or DHO” value in the data set on DENV-2-eGFP (P12-34 1 µM, A549 cells, DENV-2-eGFP MOI 5) is given as “addition of Oro but not DHO could block the suppressive effect”. In the data set with DENV-2-eGFP (ρ0 A549 cells, DENV-2-eGFP MOI 5, 24 h), the “anti-DENV activity in mitochondria-depleted cells” value is “lost”. For the same compound, the “effect on NS3 levels at early stage of infection (viral translation)” value with DENV-2 [1] was “did not reduce NS3 levels until 4~6 h post-infection”. The “suppression of ZIKV replication with uridine supplement” value with ZIKV (setting [7]) is listed as “this effect of uridine was also noted”. In addition, the “relative potency versus AR-12 (fold)” value in the data set on ZIKV (ZIKV, A549 cells) is given as ~ 10 fold; in the data set with JEV-eGFP (JEV, A549 cells), ~ 10 fold. The “innate immune responses triggered by ssRNA (ISRE reporter, IFIT1, IRF-1)” value in [2] is reported as “enhanced the innate immune responses”. In addition, the “suppression of JEV replication with uridine supplement” value in the data set with JEV-eGFP (setting [7]) was “this effect of uridine was also noted”. The “effect on viral binding” value with DENV-2 [3] is on record as “no suppressive effect”. In the data set on DENV-2 [4], the “effect on viral entry” value is “no suppressive effect”.
